Assay results published in PubChem BioAssay (NCI).
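In this assay, cells in 96-well plates receive the compound at five concentrations for 48 hours. Endpoints are linearly interpolated between the surrounding concentrations. TGI marks complete inhibition of growth.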

Experiments:
Test in all cases: growth of human tumour cells (NCI), 48 h
[1] = tested on: SW-620 colon
[2] = tested on: OVCAR-4 ovarian
[3] = tested on: UACC-257 melanoma
[4] = tested on: NCI-H23 lung
[5] = tested on: SNB-75 CNS
[6] = tested on: UO-31 renal
[7] = tested on: MALME-3M melanoma
[8] = tested on: OVCAR-5 ovarian
[9] = tested on: HCT-15 colon
[10] = tested on: CCRF-CEM leukemia
[11] = tested on: SK-MEL-2 melanoma
[12] = tested on: SK-MEL-5 melanoma
[13] = tested on: OVCAR-3 ovarian
[14] = tested on: MCF7 breast
[15] = tested on: HCT-116 colon
[16] = tested on: SF-268 CNS
[17] = tested on: LOX IMVI melanoma
[18] = tested on: EKVX NSCLC
[19] = tested on: SK-OV-3 ovarian
[20] = tested on: NCI-H226 lung
[21] = tested on: MDA-MB-231 breast
[22] = tested on: CAKI-1 renal
[23] = tested on: UACC-62 melanoma
[24] = tested on: SN12C renal
[25] = tested on: SF-539 CNS
[26] = tested on: SK-MEL-28 melanoma
[27] = tested on: HT29 colon
[28] = tested on: DU-145 prostate
[29] = tested on: HCC-2998 colon
[30] = tested on: T-47D breast
[31] = tested on: M14 melanoma
[32] = tested on: SR leukemia
[33] = tested on: U251 CNS
[34] = tested on: SNB-19 CNS
[35] = tested on: NCI/ADR-RES ovarian
[36] = tested on: MDA-N
[37] = tested on: OVCAR-8 ovarian
[38] = tested on: 786-0 renal
[39] = tested on: A549 NSCLC
[40] = tested on: PC-3 prostate
[41] = tested on: MDA-MB-435
[42] = tested on: RPMI-8226 leukemia
[43] = tested on: BT-549 breast
[44] = tested on: RXF 393 renal
[45] = tested on: TK-10 renal
[46] = tested on: COLO 205 colon
[47] = tested on: HS 578T breast
[48] = tested on: NCI-H460 lung
[49] = tested on: HL-60(TB) leukemia
[50] = tested on: KM12 colon
[51] = tested on: A498 renal
[52] = tested on: K-562 leukemia
[53] = tested on: MOLT-4 leukemia
[54] = tested on: NCI-H522 lung
[55] = tested on: SF-295 CNS
[56] = tested on: HOP-62 NSCLC
[57] = tested on: HOP-92 NSCLC
[58] = tested on: IGROV1 ovarian
[59] = tested on: ACHN renal

In the case of `CSC(SC)=C(C#N)C(=O)Nc1ccc(Cl)cc1`, the TGI [1] is reported as over 100 µM, the TGI [2] is reported as over 100 µM and the TGI [3] is reported as over 100 µM. The TGI [4] was over 100 µM, the TGI [5] was over 100 µM and the TGI [6] was 65.2 µM. It also gave a TGI [7] of over 100 µM, a TGI [8] of over 100 µM and a TGI [9] of over 100 µM. The TGI [10] was 74.9 µM, the TGI [11] was over 100 µM and the TGI [12] was over 100 µM. It also gave a TGI [13] of over 100 µM, a TGI [14] of over 100 µM and a TGI [15] of over 100 µM. The TGI [16] was over 100 µM, the TGI [17] was 62.1 µM and the TGI [18] was over 100 µM. It also gave a TGI [19] of over 100 µM, a TGI [20] of 85.9 µM and a TGI [21] of over 100 µM. It also gave a TGI [22] of 78.9 µM, a TGI [23] of over 100 µM and a TGI [24] of over 100 µM. It also gave a TGI [25] of 67.7 µM, a TGI [26] of over 100 µM and a TGI [27] of over 100 µM. For the same molecule, the TGI [28] was over 100 µM, the TGI [29] was over 100 µM and the TGI [30] was 85.3 µM. The TGI [31] was over 100 µM, the TGI [32] was over 100 µM and the TGI [33] was over 100 µM. The TGI [34] was over 100 µM, the TGI [35] was over 100 µM and the TGI [36] was over 100 µM. The TGI [37] was over 100 µM, the TGI [38] was over 100 µM and the TGI [39] was over 100 µM. It also gave a TGI [40] of over 100 µM, a TGI [41] of over 100 µM and a TGI [42] of over 100 µM. The TGI [43] was over 100 µM, the TGI [44] was 54.9 µM and the TGI [45] was 72.6 µM. It also gave a TGI [46] of 35.9 µM, a TGI [47] of over 100 µM and a TGI [48] of over 100 µM. It also gave a TGI [49] of 69.3 µM, a TGI [50] of over 100 µM and a TGI [51] of 90.4 µM. It also gave a TGI [52] of over 100 µM and a TGI [53] of 89.6 µM.
`COc1ccc(Cl)cc1NC(=O)O/N=C(\Cl)C(C)C` gave a TGI [54] of 2.46 µM, a TGI [2] of 34.1 µM and a TGI [3] of 35.9 µM. The TGI [4] was 47.7 µM, the TGI [5] was 38.7 µM and the TGI [6] was 28.5 µM. The TGI [55] was 33.9 µM, the TGI [7] was 5.28 µM and the TGI [8] was 34.2 µM. For the same molecule, the TGI [10] was over 29.7 µM, the TGI [11] was 33.9 µM and the TGI [12] was over 44.5 µM. The TGI [13] was 18.7 µM, the TGI [14] was 38.6 µM and the TGI [15] was 45.5 µM. For the same molecule, the TGI [16] was 47.4 µM, the TGI [17] was 5.06 µM and the TGI [18] was 13.5 µM. The TGI [19] was 34.7 µM, the TGI [20] was 33.2 µM and the TGI [21] was 15.1 µM. The TGI [22] was 3.24 µM, the TGI [23] was 32.1 µM and the TGI [56] was 35.2 µM. For the same molecule, the TGI [57] was 3.9 µM, the TGI [24] was 23.4 µM and the TGI [25] was 29.4 µM. For the same molecule, the TGI [26] was 42.9 µM, the TGI [27] was 43.8 µM and the TGI [28] was 37.4 µM. For the same molecule, the TGI [29] was 35.7 µM, the TGI [30] was 16.8 µM and the TGI [31] was 13 µM. It also gave a TGI [33] of over 59.4 µM, a TGI [34] of over 61.7 µM and a TGI [35] of 16.6 µM. The TGI [36] was 26.2 µM, the TGI [58] was 27.1 µM and the TGI [37] was 32.7 µM. The TGI [38] was 27.1 µM, the TGI [39] was 37.9 µM and the TGI [40] was 32.3 µM. It also gave a TGI [59] of 4.21 µM, a TGI [41] of 47.6 µM and a TGI [42] of 4.61 µM. The TGI [43] was 6.9 µM, the TGI [44] was 17.4 µM and the TGI [45] was 6.93 µM. It also gave a TGI [46] of 3.5 µM, a TGI [47] of 69.2 µM and a TGI [48] of 37.6 µM. For the same molecule, the TGI [49] was over 24.5 µM, the TGI [50] was 35.5 µM and the TGI [51] was 46.8 µM. For the same molecule, the TGI [52] was 7.59 µM and the TGI [53] was 6.11 µM.
